Assay results published in ChEMBL document CHEMBL2216747, “Effect of daurisoline on HERG channel electrophysiological function and protein expression” (J Nat Prod, 2012).

What was measured:
HEK293 [1] = assay: Downregulation of human ERG expression in HEK293 cells assessed as change in intensity of 135 kDa band at 1 to 10 uM after 24 hrs by Western blot analysis; assay type: ADME, cell-based; settings: hek293, 24 h
HEK293 [2] = assay: Downregulation of human ERG expression in HEK293 cells assessed as decrease in intensity of 155 kDa band at 30 uM after 24 hrs by Western blot analysis; assay type: ADME, cell-based; settings: hek293, 24 h
HEK293 [3] = assay: Downregulation of human ERG expression in HEK293 cells assessed as decrease in intensity of 135 kDa band at 30 uM after 24 hrs by Western blot analysis; assay type: ADME, cell-based; settings: hek293, 24 h
HEK293 [4] = assay: Reduction in human ERG-tail density expressed in HEK293 cells at 30 uM after 24 hrs by densitometric analysis; assay type: ADME, cell-based; settings: hek293, 24 h
[5] = Cmax in rabbit at 30 uM, iv administered as bolus dose; assay type: ADME, organism-based, Oryctolagus cuniculus; design: dose 30 uM, route intravenous; settings: in vivo
[6] = Cmax in dog at 30 uM, iv administered as bolus dose; assay type: ADME, organism-based, Canis lupus familiaris; design: dose 30 uM, route intravenous; settings: in vivo
IKs (KCNE1) = IKs (KCNE1) (Cavia porcellus, UniProt Q60409); assay: Inhibition of Iks tail current in guinea pig ventricular myocytes at 100 uM; assay type: cell-based, Ventricular myocyte
IKr = assay: Inhibition of Ikr tail current in guinea pig ventricular myocytes at 10 uM; assay type: cell-based, Cavia porcellus, Ventricular myocyte
[7] = Inhibition of Ikr tail current in rabbit ventricular myocytes; assay type: cell-based; settings: Oryctolagus cuniculus, Ventricular myocyte
[8] = biological target: Potassium voltage-gated channel subfamily E member 1 (Oryctolagus cuniculus, UniProt Q28705); assay: Inhibition of Iks tail current in rabbit ventricular myocytes; assay type: cell-based, Ventricular myocyte
HEK293 [9] = assay: Downregulation of human ERG mRNA expression in HEK293 cells at 30 uM after 24 hrs by RT-PCR analysis; assay type: ADME, cell-based; settings: hek293, 24 h
HEK293 [10] = assay: Downregulation of human ERG mRNA expression in HEK293 cells at 30 uM after 24 hrs by qRT-PCR analysis; assay type: ADME, cell-based; settings: hek293, 24 h
HEK293 [11] = assay: Downregulation of human ERG expression in HEK293 cells assessed as change in intensity of 155 kDa band at 1 to 10 uM after 24 hrs by Western blot analysis; assay type: ADME, cell-based; settings: hek293, 24 h

Chain of IKs (KCNE1) (Q60409 whole entry): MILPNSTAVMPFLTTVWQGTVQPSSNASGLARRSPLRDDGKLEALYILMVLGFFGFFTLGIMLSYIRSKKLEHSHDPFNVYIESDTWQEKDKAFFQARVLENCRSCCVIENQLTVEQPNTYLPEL
Chain of Potassium voltage-gated channel subfamily E member 1 (Q28705 whole entry): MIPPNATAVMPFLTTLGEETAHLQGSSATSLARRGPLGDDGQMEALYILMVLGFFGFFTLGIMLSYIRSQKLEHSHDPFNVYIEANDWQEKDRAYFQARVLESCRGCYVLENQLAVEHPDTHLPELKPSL

- Cmax at 30 µM [5]: 1700 nM
- Cmax at 30 µM [6]: 1700 nM
- inhibition at 100 µM (IKs (KCNE1)): 50%
- IC50 [8]: 52.5 µM
Structure (SMILES): COc1cc2c(cc1O)[C@@H](Cc1ccc(O)c(Oc3ccc(C[C@@H]4c5cc(OC)c(OC)cc5CCN4C)cc3)c1)N(C)CC2 [DARUISOLINE]
- Activity (HEK293 [1]): Non-toxic
- Activity (HEK293 [2]): Toxic
- Activity (HEK293 [3]): Toxic
- Activity (HEK293 [4]): Toxic
- inhibition at 10 µM (IKr): 39%
- IC50 [7]: 19.9 µM
- Activity (HEK293 [9]): Toxic
- Activity (HEK293 [10]): Toxic
- Activity (HEK293 [11]): Non-toxic
